Data reported in patent publication US4492711A, “Benzamides, their salts, and pharmaceutical compositions containing them” (SANOFI, priority 1982, dated 1985).

Legend:
[1] = system: gastric acid secretion; conditions: as oxalate; cited from earlier work
[2] = molecular target: T1, gastric histamine H2 receptors (Rattus norvegicus, UniProt P25102); test: Antagonism of gastric hypersecretion induced by histamine in the atropinized rat (Ghosh and Schild modified according to Black et al.); format: in vivo; conditions: intravenous; for Relative potency (cimetidine = 1): ID50-based, compared to cimetidine; for ED50: single dose, histamine i.v. infusion 15 mcmol/kg/hour, read-out: ID50 (dose which inhibits by 50% the gastric hypersecretion induced by histamine)
T1 construct: the gastric secretion is measured by perfusion of a physiological solution at a constant speed in the stomach of the animal; from tissue; host or cells: stomach of the living atropinized rat (in vivo, perfused stomach)
Procedure: According to this test, a gastric acid hypersecretion is induced by intravenous infusion of a sub-maximal dose of histamine equivalent to 15 mcmol/kg/hour and the gastric secretion is measured by perfusion of a physiological solution at a constant speed in the stomach of the animal.
The ID50 represents the index of the gastric H2 -blocking action.

[3] = system: hypersecretion induced by dimaprit; test: Antisecretory activity in the cat bearing a gastric fistula, dimaprit-induced hypersecretion (Emas et al.); format: in vivo; conditions: cat with gastric fistula, intragastric
Excerpt: The antisecretoy activity of the products of the present invention has been evaluated in the cat bearing a gastric fistula according to the method of Emas et al (Gastroenterology, 1960, 39, 771) by using, as hypersecretory agent, dimaprit at the dose of 640 mcg/kg/k.

T1 sequence (P25102 whole entry, the tested form may be a part): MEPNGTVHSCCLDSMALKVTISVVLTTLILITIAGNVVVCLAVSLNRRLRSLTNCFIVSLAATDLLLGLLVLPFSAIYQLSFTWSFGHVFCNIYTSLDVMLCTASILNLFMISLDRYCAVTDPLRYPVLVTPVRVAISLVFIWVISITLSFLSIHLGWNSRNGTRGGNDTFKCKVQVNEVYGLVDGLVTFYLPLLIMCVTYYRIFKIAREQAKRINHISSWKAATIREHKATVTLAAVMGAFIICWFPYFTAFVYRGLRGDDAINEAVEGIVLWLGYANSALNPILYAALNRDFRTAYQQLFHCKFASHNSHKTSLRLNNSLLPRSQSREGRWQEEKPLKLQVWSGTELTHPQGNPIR

## CN(C)Cc1ccc(CSCCNC(=O)c2ccc(S(N)(=O)=O)cc2)o1 [Compound A, N-[2-(5-dimethylaminomethylfuran-2-ylmethylthio)ethyl]4-sulfamoylbenzamide, reference compound]
[1]
  ED50, gastric acid secretion inhibiting activity in the rat: 2.54 mg/kg
[2]
  Relative potency (cimetidine = 1): 0.42

## CNC(=C[N+](=O)[O-])NCCSCc1ccc(CN(C)C)o1 [Ranitidine, N-[2-[[5-[(dimethylamino)methyl]furfuryl]thio]ethyl]-N'-methyl-2-nitro-1,1-ethenediamine, reference compound]
[2]
  Relative potency (cimetidine = 1): 3.80

## CNC(=S)Nc1cccc(C(=O)NCCSCc2ccc(CN(C)C)o2)c1 [SR 57914, 3-(3-methylthioureido)-N-[2-(5-dimethylaminomethylfuran-2-ylmethylthio)ethyl]benzamide]
[3]; an hour before dimaprit perfusion (640 mcg/kg/k)
  antagonism of the hypersecretion induced by dimaprit: antagonizes in dose depending way the hypersecretion induced by dimaprit
[3]; an hour before dimaprit perfusion, cimetidine as reference
  activity relative to cimetidine against hypersecretion induced by dimaprit: at least equal to that of cimetidine
[2]
  Relative potency (cimetidine = 1): 2.11
  ED50: 0.45 µmol/kg

## CNC(=O)Nc1cccc(C(=O)NCCSCc2ccc(CN(C)C)o2)c1 [SR 57934, 3-(3-methylureido)-N-[2-(5-dimethylaminomethylfuran-2-ylmethylthio)ethyl]benzamide]
[2]
  Relative potency (cimetidine = 1): 0.62
  ED50: 1.53 µmol/kg

## CNC(=NC#N)Nc1cccc(C(=O)NCCSCc2ccc(CN(C)C)o2)c1 [SR 57970, 3-(2-cyano-3-methylguanidino)-N-[2-(5-dimethylaminomethylfuran-2-ylmethylthio)ethyl]benzamide]
[2]
  Relative potency (cimetidine = 1): 1.90
  ED50: 0.5 µmol/kg

## CNC(=C[N+](=O)[O-])Nc1cccc(C(=O)NCCSCc2ccc(CN(C)C)o2)c1 [SR 58028 A, 3-[N-(1-methylamino-2-nitroethenyl)amino]-N-[2-(5-dimethylaminomethylfuran-2-ylmethylthio)ethyl]benzamide]
[2]
  Relative potency (cimetidine = 1): 4.13
  ED50: 0.23 µmol/kg
